Results reported in ChEMBL document CHEMBL1145525, “Discovery of antiandrogen activity of nonsteroidal scaffolds of marketed drugs” (Proc Natl Acad Sci U S A, 2007).
The source made the active and inactive calls. No cut-off for these calls is given here.

Tests used:
[1] = target: T1, Androgen receptor (Rattus norvegicus, UniProt P15207); assay: Displacement of [3H]mibolerone from rat androgen receptor
T1 sequence (P15207 whole entry): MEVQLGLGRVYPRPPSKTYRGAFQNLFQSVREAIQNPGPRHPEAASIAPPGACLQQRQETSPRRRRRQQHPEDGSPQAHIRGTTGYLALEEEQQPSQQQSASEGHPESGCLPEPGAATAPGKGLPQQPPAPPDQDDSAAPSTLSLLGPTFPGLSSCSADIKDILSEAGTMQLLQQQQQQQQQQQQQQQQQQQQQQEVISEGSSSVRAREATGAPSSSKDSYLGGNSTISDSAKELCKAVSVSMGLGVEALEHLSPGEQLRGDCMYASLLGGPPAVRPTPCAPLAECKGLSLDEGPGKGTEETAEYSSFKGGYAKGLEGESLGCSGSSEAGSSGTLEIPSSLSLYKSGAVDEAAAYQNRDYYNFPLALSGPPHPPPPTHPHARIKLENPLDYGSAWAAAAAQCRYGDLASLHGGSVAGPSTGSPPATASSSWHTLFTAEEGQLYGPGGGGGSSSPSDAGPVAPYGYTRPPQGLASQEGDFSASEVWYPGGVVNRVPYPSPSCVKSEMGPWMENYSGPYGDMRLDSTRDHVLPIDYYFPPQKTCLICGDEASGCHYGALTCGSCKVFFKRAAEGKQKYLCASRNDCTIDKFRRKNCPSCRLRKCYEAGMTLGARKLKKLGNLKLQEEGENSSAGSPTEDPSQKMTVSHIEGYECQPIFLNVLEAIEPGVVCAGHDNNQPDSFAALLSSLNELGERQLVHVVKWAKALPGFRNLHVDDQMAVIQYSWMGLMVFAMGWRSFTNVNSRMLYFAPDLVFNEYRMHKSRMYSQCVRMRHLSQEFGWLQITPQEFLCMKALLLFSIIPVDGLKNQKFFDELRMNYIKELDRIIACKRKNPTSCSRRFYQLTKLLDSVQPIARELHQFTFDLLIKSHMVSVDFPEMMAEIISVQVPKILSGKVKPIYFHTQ

[2] = tested on: LNCaP; assay: Increase in prostate specific antigen expression level in human LNCaP cells at 1 uM; assay type: functional, cell-based
[3] = target: D(2) dopamine receptor (Homo sapiens) (UniProt P14416); assay: Displacement of [3H]spiperone from human dopamine D2L receptor expressed in CHO FlpIn cells upto 1 uM; assay type: cell-based
Sequence of D(2) dopamine receptor (Homo sapiens) (P14416 whole entry): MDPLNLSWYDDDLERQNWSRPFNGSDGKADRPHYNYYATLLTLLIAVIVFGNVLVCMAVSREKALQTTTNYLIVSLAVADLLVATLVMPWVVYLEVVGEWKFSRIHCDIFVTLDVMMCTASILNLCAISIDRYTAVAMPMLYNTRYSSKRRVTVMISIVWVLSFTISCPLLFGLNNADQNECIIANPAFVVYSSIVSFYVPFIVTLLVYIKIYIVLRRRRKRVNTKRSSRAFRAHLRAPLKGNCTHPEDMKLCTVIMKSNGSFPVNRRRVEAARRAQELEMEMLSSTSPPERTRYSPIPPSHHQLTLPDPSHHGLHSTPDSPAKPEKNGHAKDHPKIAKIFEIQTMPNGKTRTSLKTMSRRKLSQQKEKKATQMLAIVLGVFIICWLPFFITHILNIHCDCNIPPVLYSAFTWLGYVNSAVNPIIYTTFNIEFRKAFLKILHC

[4] = target: T2, Androgen receptor (Homo sapiens, UniProt P10275); assay: Inhibition of wild type androgen receptor expressed in CV1 cells assessed as dihydrotestosterone-stimulated transactivation by CAT reporter gene assay; assay type: cell-based, CV-1
T2 sequence (P10275 whole entry): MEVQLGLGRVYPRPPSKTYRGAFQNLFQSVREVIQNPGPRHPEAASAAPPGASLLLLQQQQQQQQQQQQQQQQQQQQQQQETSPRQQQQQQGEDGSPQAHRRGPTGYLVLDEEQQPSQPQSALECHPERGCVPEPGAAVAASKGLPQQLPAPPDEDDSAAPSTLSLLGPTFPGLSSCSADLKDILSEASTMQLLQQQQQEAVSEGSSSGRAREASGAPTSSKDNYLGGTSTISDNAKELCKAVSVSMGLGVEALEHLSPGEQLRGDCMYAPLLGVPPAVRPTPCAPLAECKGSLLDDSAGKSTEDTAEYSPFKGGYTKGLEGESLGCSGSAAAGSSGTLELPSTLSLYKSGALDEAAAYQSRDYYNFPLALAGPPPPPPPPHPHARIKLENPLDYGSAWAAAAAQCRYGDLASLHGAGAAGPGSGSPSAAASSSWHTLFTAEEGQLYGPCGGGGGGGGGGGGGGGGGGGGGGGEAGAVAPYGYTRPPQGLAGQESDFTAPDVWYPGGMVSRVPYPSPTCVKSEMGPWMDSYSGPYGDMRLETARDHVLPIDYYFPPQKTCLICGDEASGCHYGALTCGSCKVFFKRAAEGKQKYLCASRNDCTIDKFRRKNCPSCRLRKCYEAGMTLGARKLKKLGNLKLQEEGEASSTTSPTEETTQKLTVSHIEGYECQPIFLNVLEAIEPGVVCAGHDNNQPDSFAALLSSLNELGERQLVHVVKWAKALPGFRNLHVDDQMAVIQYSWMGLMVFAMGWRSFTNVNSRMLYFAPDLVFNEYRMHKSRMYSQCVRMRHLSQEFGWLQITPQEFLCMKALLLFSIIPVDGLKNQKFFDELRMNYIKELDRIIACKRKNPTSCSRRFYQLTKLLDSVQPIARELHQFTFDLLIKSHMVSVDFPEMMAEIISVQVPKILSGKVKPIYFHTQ

[5] = tested on: PC-3; assay: Cytotoxicity against human PC3 cells upto 10 uM by SRB assay; assay type: functional, cell-based
[6] = tested on: LNCaP; assay: Reduction of prostate specific antigen expression level in human LNCaP cells at 10 uM; assay type: functional; set-up: scale not given: the % may be the effect or the level left
[7] = target: T3, 5-hydroxytryptamine receptor 2C (Homo sapiens) (UniProt P28335); assay: Displacement of [3H]mesulergine from human dopamine 5HT2C receptor expressed in CHO-K1 cells upto 1 uM; assay type: cell-based
T3 sequence (whole entry): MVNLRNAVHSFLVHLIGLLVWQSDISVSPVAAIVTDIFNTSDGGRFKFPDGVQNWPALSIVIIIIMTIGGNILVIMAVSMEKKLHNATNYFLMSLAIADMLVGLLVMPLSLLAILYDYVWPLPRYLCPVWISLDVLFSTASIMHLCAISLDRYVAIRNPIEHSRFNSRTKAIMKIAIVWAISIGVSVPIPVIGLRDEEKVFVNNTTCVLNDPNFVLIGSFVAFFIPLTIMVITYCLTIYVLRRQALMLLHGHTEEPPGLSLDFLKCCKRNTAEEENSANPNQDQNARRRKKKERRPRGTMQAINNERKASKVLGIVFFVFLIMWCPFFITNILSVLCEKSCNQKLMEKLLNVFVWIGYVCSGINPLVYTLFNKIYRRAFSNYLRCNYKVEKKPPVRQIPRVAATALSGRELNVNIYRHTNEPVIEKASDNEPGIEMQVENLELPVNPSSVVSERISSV

[8] = tested on: HeLa; assay: Effect on translocation of androgen receptor from cytoplasm to nucleus in human HeLa cells at 1 uM in presence of dihydrotestosterone; assay type: functional
[9] = target: 5-hydroxytryptamine receptor 2A (Homo sapiens) (UniProt P28223); assay: Displacement of [3H]ketanserin from human dopamine 5HT2A receptor expressed in CHO-K1 cells upto 1 uM; assay type: cell-based
Sequence of 5-hydroxytryptamine receptor 2A (Homo sapiens) (P28223 whole entry): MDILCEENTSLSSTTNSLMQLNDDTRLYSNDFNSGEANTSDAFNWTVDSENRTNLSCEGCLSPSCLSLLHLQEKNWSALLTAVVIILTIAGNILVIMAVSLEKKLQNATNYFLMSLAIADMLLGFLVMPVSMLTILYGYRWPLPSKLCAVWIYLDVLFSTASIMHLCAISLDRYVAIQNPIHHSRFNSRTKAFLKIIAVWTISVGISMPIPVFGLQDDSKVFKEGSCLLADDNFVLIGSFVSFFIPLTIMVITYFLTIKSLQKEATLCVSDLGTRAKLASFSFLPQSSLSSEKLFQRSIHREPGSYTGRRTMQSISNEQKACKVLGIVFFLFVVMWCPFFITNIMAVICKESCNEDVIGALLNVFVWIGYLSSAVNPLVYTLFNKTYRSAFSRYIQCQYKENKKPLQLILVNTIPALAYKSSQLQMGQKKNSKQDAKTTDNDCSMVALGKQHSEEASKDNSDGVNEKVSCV

Row | Ki [1] [µM] | Activity [3] | IC50 ([4]; read-out: IC50) [µM] | IC50 ([4]; read-out: Log IC50 (converted)) [µM] | Activity [7] | Activity [9] | Structure (SMILES) | Activity [2] | Activity [5] | Activity [6] [%] | Activity [8] [%]
1 | 3 |  |  |  |  |  | N#Cc1ccc2c(c1)N(CCCN1CCC(O)CC1)c1ccccc1S2 [PERICIAZINE] |  |  |  | 
2 |  | inactive | 0.25 | 0.251 | inactive | inactive | O=C(CN1c2ccccc2Sc2ccc(C(F)(F)F)cc21)c1cccc2ccccc12 | Active | inactive | >80 | >90
